Reference: ChEMBL document CHEMBL2407021, “Unveiling the mode of action of antibacterial labdane diterpenes from Alpinia nigra (Gaertn.) B. L. Burtt seeds” (2013)
Values after ≈ are worked out from the molar mass of the structure shown. Active and inactive are the calls of the source. The calls are words filed in the database; no cut-off is given here.

What was measured:
Staphylococcus aureus [1] = assay: Antibacterial activity against Staphylococcus aureus ATCC 6538 after 18 hrs by microdilution method; assay type: functional; conditions: ATCC 6538, 18 h
Staphylococcus aureus [2] = assay: Antibacterial activity against Staphylococcus aureus ATCC 6538 after 24 hrs; assay type: functional; conditions: ATCC 6538, 24 h
Escherichia coli [3] = assay: Antibacterial activity against Escherichia coli ATCC 25922 after 24 hrs; assay type: functional; conditions: ATCC 25922, 24 h
Bacillus cereus [4] = assay: Antibacterial activity against Bacillus cereus ATCC 11778 after 24 hrs; assay type: functional; conditions: ATCC 11778, 24 h
Escherichia coli [5] = assay: Induction of cell damage in enterotoxic Escherichia coli MTCC 723 assessed as increase in fluorescence intensity at MIC after 12 hrs using propidium iodide staining by flow cytometry analysis; assay type: functional
Listeria monocytogenes [6] = assay: Induction of cell damage in Listeria monocytogenes ATCC 19115 assessed as increase in fluorescence intensity at MIC after 12 hrs using propidium iodide staining by flow cytometry analysis; assay type: functional
Escherichia coli [7] = assay: Antibacterial activity against Escherichia coli ATCC 25922 after 18 hrs by microdilution method; assay type: functional; conditions: ATCC 25922, 18 h
Staphylococcus aureus [8] = assay: Induction of cell lysis in Staphylococcus aureus ATCC 6538 assessed as membrane disintegration and damage of cell wall at MIC by field emission scanning electron microscopy analysis; assay type: functional, organism-based
Yersinia enterocolitica [9] = assay: Antibacterial activity against Yersinia enterocolitica MTCC 859 after 18 hrs by microdilution method; assay type: functional; conditions: MTCC 859, 18 h
Yersinia enterocolitica [10] = assay: Induction of cell leakage in Yersinia enterocolitica MTCC 859 assessed as release of cellular materials at MIC after 8 to 16 hrs by UV/VIS spectrophotometer analysis; assay type: functional, organism-based
Salmonella paratyphi [11] = assay: Induction of cell damage in Salmonella paratyphi A MTCC 735 assessed as increase in fluorescence intensity at MIC after 12 hrs using propidium iodide staining by flow cytometry analysis; assay type: functional, Salmonella enterica subsp. enterica serovar Paratyphi A
Escherichia coli [12] = assay: Antibacterial activity against enterotoxic Escherichia coli MTCC 723 after 18 hrs by microdilution method; assay type: functional; conditions: MTCC 723, 18 h
Listeria monocytogenes [13] = assay: Antibacterial activity against Listeria monocytogenes ATCC 19115 after 18 hrs by microdilution method; assay type: functional; conditions: ATCC 19115, 18 h
Yersinia enterocolitica [14] = assay: Induction of cell lysis in Yersinia enterocolitica MTCC 859 assessed as cell membrane damage at MIC by field emission scanning electron microscopy analysis; assay type: functional, organism-based
Escherichia coli [15] = assay: Antibacterial activity against enterotoxic Escherichia coli MTCC 723 after 24 hrs; assay type: functional; conditions: MTCC 723, 24 h
Yersinia enterocolitica [16] = assay: Antibacterial activity against Yersinia enterocolitica MTCC 859 after 24 hrs; assay type: functional; conditions: MTCC 859, 24 h
Escherichia coli [17] = assay: Induction of cell damage in Escherichia coli ATCC 25922 assessed as increase in fluorescence intensity at MIC after 12 hrs using propidium iodide staining by flow cytometry analysis; assay type: functional
Bacillus cereus [18] = assay: Antibacterial activity against Bacillus cereus ATCC 11778 after 18 hrs by microdilution method; assay type: functional; conditions: ATCC 11778, 18 h
Salmonella paratyphi [19] = assay: Antibacterial activity against Salmonella paratyphi A MTCC 735 after 18 hrs by microdilution method; assay type: functional, Salmonella enterica subsp. enterica serovar Paratyphi A; conditions: Salmonella enterica, MTCC 735, 18 h
Yersinia enterocolitica [20] = assay: Induction of cell damage in Yersinia enterocolitica MTCC 859 assessed as increase in fluorescence intensity at MIC after 12 hrs using propidium iodide staining by flow cytometry analysis; assay type: functional
Bacillus cereus [21] = assay: Induction of cell damage in Bacillus cereus ATCC 11778 assessed as increase in fluorescence intensity at MIC after 12 hrs using propidium iodide staining by flow cytometry analysis; assay type: functional
Staphylococcus aureus [22] = assay: Induction of cell leakage in Staphylococcus aureus ATCC 6538 assessed as release of cellular materials at MIC after 8 to 16 hrs by UV/VIS spectrophotometer analysis; assay type: functional, organism-based
Listeria monocytogenes [23] = assay: Antibacterial activity against Listeria monocytogenes ATCC 19115 after 24 hrs; assay type: functional; conditions: ATCC 19115, 24 h
Staphylococcus aureus [24] = assay: Induction of cell damage in Staphylococcus aureus ATCC 6538 assessed as increase in fluorescence intensity at MIC after 12 hrs using propidium iodide staining by flow cytometry analysis; assay type: functional
Salmonella paratyphi [25] = assay: Antibacterial activity against Salmonella paratyphi A MTCC 735 after 24 hrs; assay type: functional, Salmonella enterica subsp. enterica serovar Paratyphi A; conditions: Salmonella enterica, MTCC 735, 24 h

## CC1(C)CCC[C@@]2(C)[C@H]1CC[C@@]1(CO1)[C@@H]2C/C=C(/C=O)CC=O [AFRAMODIAL]
Staphylococcus aureus [1]
  MIC: 3.38 µg/mL (≈ 10.6 µM)
Staphylococcus aureus [2]
  MBC: 6.75 µg/mL (≈ 21.2 µM)
Escherichia coli [3]
  MBC: 12.5 µg/mL (≈ 39.3 µM)
Bacillus cereus [4]
  MBC: 6.75 µg/mL (≈ 21.2 µM)
Escherichia coli [5]
  RFU: 153
Listeria monocytogenes [6]
  RFU: 89.9
Escherichia coli [7]
  MIC: 12.5 µg/mL (≈ 39.3 µM)
Staphylococcus aureus [8]
  Activity: Active
Yersinia enterocolitica [9]
  MIC: 3.38 µg/mL (≈ 10.6 µM)
Yersinia enterocolitica [10]
  Activity: Active
Salmonella paratyphi [11]
  RFU: 87.6
Escherichia coli [12]
  MIC: 6.75 µg/mL (≈ 21.2 µM)
Listeria monocytogenes [13]
  MIC: 12.5 µg/mL (≈ 39.3 µM)
Yersinia enterocolitica [14]
  Activity: Active
Escherichia coli [15]
  MBC: 6.75 µg/mL (≈ 21.2 µM)
Yersinia enterocolitica [16]
  MBC: 3.38 µg/mL (≈ 10.6 µM)
Escherichia coli [17]
  RFU: 187
Bacillus cereus [18]
  MIC: 6.75 µg/mL (≈ 21.2 µM)
Salmonella paratyphi [19]
  MIC: 6.75 µg/mL (≈ 21.2 µM)
Yersinia enterocolitica [20]
  RFU: 117
Bacillus cereus [21]
  RFU: 118
Staphylococcus aureus [22]
  Activity: Active
Listeria monocytogenes [23]
  MBC: 12.5 µg/mL (≈ 39.3 µM)
Staphylococcus aureus [24]
  RFU: 119
Salmonella paratyphi [25]
  MBC: 12.5 µg/mL (≈ 39.3 µM)

## C=C1CC[C@H]2C(C)(C)CCC[C@]2(C)[C@H]1C/C=C(/C=O)CC=O
Staphylococcus aureus [1]
  MIC: 12.5 µg/mL (≈ 41.3 µM)
Staphylococcus aureus [2]
  MBC: 25 µg/mL (≈ 82.7 µM)
Escherichia coli [3]
  MBC: 50 µg/mL (≈ 165 µM)
Bacillus cereus [4]
  MBC: 12.5 µg/mL (≈ 41.3 µM)
Escherichia coli [5]
  RFU: 139
Listeria monocytogenes [6]
  RFU: 70.9
Escherichia coli [7]
  MIC: 25 µg/mL (≈ 82.7 µM)
Staphylococcus aureus [8]
  Activity: Active
Yersinia enterocolitica [9]
  MIC: 12.5 µg/mL (≈ 41.3 µM)
Yersinia enterocolitica [10]
  Activity: Active
Salmonella paratyphi [11]
  RFU: 78.5
Escherichia coli [12]
  MIC: 25 µg/mL (≈ 82.7 µM)
Listeria monocytogenes [13]
  MIC: 25 µg/mL (≈ 82.7 µM)
Yersinia enterocolitica [14]
  Activity: Active
Escherichia coli [15]
  MBC: 25 µg/mL (≈ 82.7 µM)
Yersinia enterocolitica [16]
  MBC: 25 µg/mL (≈ 82.7 µM)
Escherichia coli [17]
  RFU: 146
Bacillus cereus [18]
  MIC: 12.5 µg/mL (≈ 41.3 µM)
Salmonella paratyphi [19]
  MIC: 12.5 µg/mL (≈ 41.3 µM)
Yersinia enterocolitica [20]
  RFU: 80.7
Bacillus cereus [21]
  RFU: 117
Staphylococcus aureus [22]
  Activity: Active
Listeria monocytogenes [23]
  MBC: 25 µg/mL (≈ 82.7 µM)
Staphylococcus aureus [24]
  RFU: 114
Salmonella paratyphi [25]
  MBC: 12.5 µg/mL (≈ 41.3 µM)
